Results published in PubChem BioAssay (NCI).
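Test compounds were applied to cells in 96-well plates for 48 hours at 5 doses. The concentration for full growth arrest is given as TGI.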

Legend:
Experiment in all cases: NCI tumour cell line growth inhibition, 48 h
[1] = tested on: SR leukemia
[2] = tested on: CCRF-CEM leukemia
[3] = tested on: K-562 leukemia
[4] = tested on: KM12 colon
[5] = tested on: ACHN renal
[6] = tested on: SW-620 colon
[7] = tested on: PC-3 prostate
[8] = tested on: T-47D breast
[9] = tested on: IGROV1 ovarian
[10] = tested on: CAKI-1 renal
[11] = tested on: M14 melanoma
[12] = tested on: OVCAR-4 ovarian

Row | Structure (SMILES) | TGI [1] [µM] | TGI [2] [µM] | TGI [3] [µM] | TGI [4] [µM] | TGI [5] [µM] | TGI [6] [µM] | TGI [7] [µM] | TGI [8] [µM] | TGI [9] [µM] | TGI [10] [µM] | TGI [11] [µM] | TGI [12] [µM]
1 | [Se]=P(c1ccccc1)(c1ccccc1)c1ccc(C(c2ccccc2)=P(c2ccccc2)(c2ccccc2)c2ccccc2)cc1 | > 33.3 | 8.37 | 3.33 | 1.8 | 8.06 | 19.2 | 9.34 | 7.07 | 11.5 | 8.5 | 24.5 | > 33.1
2 | ClC(Cl)(Cl)C1=N[C@H]2[C@H](Br)[C@@H]3O[C@@H](c4ccccc4)[C@H](c4ccccc4)O[C@@H]3[C@H]2O1 | 52.2 | 47.2 | 54 | 45.6 | 31.3 | 44.8 | 30.4 | > 100 | 30.9 | 32.6 | 50.3 | 43.8
3 | Clc1nc(Cl)c(Cl)c(Cl)n1 | 14.6 | 15.2 | 28 | 28.9 | 26 | 20.1 | 34.4 | 41 | 38.7 | 35.6 | 34.4 | 46.8
4 | Cc1ccc(S(=O)(=O)/N=C(\NN)Nc2ccc(Cl)cc2)cc1 | > 100 | > 100 | > 100 | > 100 | > 100 | > 100 | > 100 | > 100 | > 100 | > 100 | > 100 | > 100
5 | CCOC(=O)c1cc(C(=O)c2ccccc2)n2nc(-c3ccc(Cl)cc3)ccc12 | > 100 | > 100 | > 100 | 53.5 | 28.2 | > 100 | 30.4 | 92.3 | 38.8 | 81.3 | 90.7 | 37.2
6 | COC(=O)c1ccccc1C#CC#Cc1ccccc1C(=O)OC | > 10 | > 10 | > 10 | > 10 | > 10 | > 10 | > 10 | > 10 | > 10 | > 10 | > 10 | > 10
7 | C=CCOc1ccccc1N=N/C(C#N)=N\Nc1ccccc1OCC=C | > 100 | > 100 | > 100 | > 100 | > 100 | > 100 | > 100 | > 100 | > 100 | > 100 | > 100 | > 100
8 | CC(C)C(C/C=C1\CC(CO)(COC(=O)c2ccccc2)OC1=O)C(C)C (centres undefined) | > 100 | 44.1 | 44.1 | 35.6 | 32 | 33.8 | 32.5 | > 100 | 37.2 | 33.8 | 32.8 | 35.6
9 | COC(=O)C(CCc1ccccc1I)C1=CCC2(CC1)OCCO2 (centres undefined) | > 100 | 33.7 | > 100 | > 100 | > 100 | > 100 | > 100 | 71.3 | > 100 | > 100 | > 100 | > 100
10 | COc1ccc2cc1Oc1ccc(cc1)C(Sc1ccccc1)CCOC(=O)CC2 (centres undefined) | > 100 | > 100 | > 100 | > 100 | > 100 | > 100 | > 100 | > 100 | > 100 | > 100 | > 100 | > 100
11 | C/C(=N/NC(=S)Nc1ccccc1Cl)c1cccc(/C(C)=N\NC(=S)Nc2ccccc2Cl)n1 | > 100 | > 100 | > 100 | > 100 | > 100 | > 100 | > 100 | > 100 | > 100 | > 100 | > 100 | > 100
12 | CC1(C)[C@@H](Cn2cnc3c(N)ncnc32)CC[C@@]1(C)CO | 76.8 | > 100 | > 100 | > 100 | > 100 | > 100 | > 100 | > 100 | > 100 | > 100 | > 100 | > 100
